Measurements from paper PMC8163063 (Chemical Science, 2020).

Experiments:
Bacillus subtilis = format: cell-based
Escherichia coli = format: cell-based

## tachyplesin I (KWCFRVCYRGICYRRCR; not fully specified; Tachyplesin-1; UniProt P14213 24-40, looked up) [TPI-1]
Bacillus subtilis
  MIC against B. subtilis: 4 µg/mL
Escherichia coli
  MIC against E.coli: 4 µg/mL
